Experimental data from patent EP4417602A1, “SUBSTITUTED PYRAZOLE CARBOXAMIDES, SALTS THEREOF AND THEIR USE AS HERBICIDALLY ACTIVE SUBSTANCES” (Bayer AG, priority 2023, dated 2024).

Experiments:
ALOMY [1] = test: A. Herbicidal pre-emergence action on harmful plants (Tables A); type: in vivo, Alopecurus myosuroides
Method in brief: (§1)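 Greenhouse pre-emergence test: compound applied to the soil surface at 1280 g/ha or below, and herbicidal effect rated visually at ca. 3 weeks on a 0–100% scale against untreated plants.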

VERPE = test: B. Herbicidal post-emergence action on harmful plants (Tables B); type: in vivo, Veronica persica; details: application rate 1280 g/ha; Table B11a
Method in brief: (§2)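 Activity was scored visually as % damage (100% = dead, 0% = like untreated) about 3 weeks after treatment. Plants at the one-leaf stage, 2-3 weeks old, were sprayed with WP/EC formulations plus 0.5% additive (600 L/ha water, up to 1280 g/ha). Plants were grown in sandy loam in a greenhouse.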

POAAN [2] = test: as above; type: in vivo, Poa annua
Method in brief: as §2

STEME [3] = test: as above; type: in vivo, Stellaria media; details: application rate 1280 g/ha; Table B6
Method in brief: as §2

MATIN [4] = test: as above; type: in vivo, Matricaria inodora
Method in brief: as §2

POAAN [5] = test: A. Herbicidal pre-emergence action on harmful plants (Tables A); type: in vivo, Poa annua
Method in brief: as §1

MATIN [6] = test: as above; type: in vivo, Matricaria inodora; details: visual grading after ca. 3 weeks vs untreated controls, 100% = plants have died off, 0% = as control plants
Method in brief: as §1

ECHCG [7] = test: as above; type: in vivo, Echinochloa crus-galli; details: visual grading after ca. 3 weeks vs untreated controls, 100% = plants have died off, 0% = as control plants
Method in brief: as §1

SETVI [8] = test: as above; type: in vivo, Setaria viridis; details: visual grading after ca. 3 weeks vs untreated controls, 100% = plants have died off, 0% = as control plants
Method in brief: as §1

ECHCG [9] = test: B. Herbicidal post-emergence action on harmful plants (Tables B); type: in vivo, Echinochloa crus-galli; details: application rate 1280 g/ha; Table B2a
Method in brief: as §2

STEME [10] = test: A. Herbicidal pre-emergence action on harmful plants (Tables A); type: in vivo, Stellaria media; details: visual grading after ca. 3 weeks vs untreated controls, 100% = plants have died off, 0% = as control plants
Method in brief: as §1

LOLRI [11] = test: B. Herbicidal post-emergence action on harmful plants (Tables B); type: in vivo, Lolium rigidum; details: application rate 1280 g/ha; Table B3
Description: (§3) Seeds of mono- and dicotyledonous weed plants were placed in plastic pots in sandy loam soil (doubly sown with in each case one species of mono- or dicotyledonous weed plants per pot), covered with soil and cultivated in a greenhouse under controlled growth conditions. 2 to 3 weeks after sowing, the test plants were treated at the one-leaf stage. The compounds of the invention, formulated in the form of wettable powders (WP) or as emulsion concentrates (EC), were applied onto the green parts of the plants as aqueous suspension or emulsion with addition of 0.5% additive at a water application rate of 600 liters per hectare (converted). After the test plants had been kept in the greenhouse under optimum growth conditions for about 3 weeks, the activity of the preparations was rated visually in comparison to untreated controls. For example, 100% activity = the plants have died, 0% activity = like control plants. Tables B1 to B12, below, show the effects of selected compounds of the general formula (I) according to table 1 on various harmful plants and an application rate corresponding to 1280 g/ha or below obtained by the experimental procedure mentioned above. Table B1a: post-emergence activity at 1280g/ha against ABUTH in %

DIGSA [12] = test: A. Herbicidal pre-emergence action on harmful plants (Tables A); type: in vivo, Digitaria sanguinalis
Method in brief: as §1

LOLRI [13] = test: as above; type: in vivo, Lolium rigidum; details: visual grading after ca. 3 weeks vs untreated controls, 100% = plants have died off, 0% = as control plants
Method in brief: as §1

GLXMA [14] = test: F. Post-emergence effects on crop plants (Tables F); type: in vivo, Glycine max; details: application rate 320 g/ha, crop plant
Excerpt: (§4) Seeds of mono- and dicotyledonous weed plants and crop plants were sown, in plastic or organic planting pots, in sandy loam, covered with soil and grown in a greenhouse under controlled growth conditions. 2 to 3 weeks after sowing, the test plants were sprayed in the single-leaf stage. The compounds according to the invention, formulated in form of wettable powders (WP) or as emulsifiable concentrates (EC), were sprayed onto the green plant parts as aqueous suspension or emulsion, with the addition of 0.5% of an additive, at an application rate of 6001 of water/ha (converted). The test plants were placed in the greenhouse for ca. 3 weeks under optimum growth conditions, and then the effect of the preparations was assessed visually in comparison with untreated controls (herbicidal effect in percent (%): 100% effect = plants have died off, 0% effect = as control plants). Tables F1 to F5 below show the effects of selected compounds of the general formula (I) according to table 1 on various crop plants and an application rate corresponding to 320 g/ha or below obtained by the experimental procedure mentioned above. Table […]: post-emergence activity at 320g/ha against ZEAMX in %

MATIN [15] = test: C. Herbicidal pre-emergence action, weed and crop plants (Tables C); type: in vivo, Matricaria inodora; details: application rate 320 g/ha; Table C8
Excerpt: (§5) Seeds of mono- and dicotyledonous weed plants and crop plants were sown, in plastic or organic planting pots, in sandy loam and covered with soil. The compounds according to the invention, formulated in the form of wettable powders (WP) or as emulsifiable concentrates (EC), were applied to the surface of the covering soil as aqueous suspension or emulsion, with the addition of 0.5% of an additive, at an application rate of 6001 of water/ha (converted). Following treatment, the pots were placed in a greenhouse and kept under optimum growth conditions for the test plants. The visual grading of the damage to the test plants was carried out after ca. 3 weeks in comparison to untreated controls (herbicidal effect in percent (%): 100% effect = plants have died off, 0% effect = as control plants). Tables C1 to C12 below show the effects of selected compounds of the general formula (I) according to table 1 on various harmful plants and an application rate corresponding to 320 g/ha or below obtained by the experimental procedure mentioned above. Table C1: pre-emergence activity at 320g/ha against KCHSC in %

ZEAMX [16] = test: F. Post-emergence effects on crop plants (Tables F); type: in vivo, Zea mays; details: crop plant
Excerpt: as §4

ECHCG [17] = test: C. Herbicidal pre-emergence action, weed and crop plants (Tables C); type: in vivo, Echinochloa crus-galli; details: application rate 320 g/ha; Table C6a
Excerpt: as §5

TRZAS = test: F. Post-emergence effects on crop plants (Tables F); type: in vivo, Triticum aestivum; details: application rate 80 g/ha, crop plant
Excerpt: as §4

ALOMY [18] = test: C. Herbicidal pre-emergence action, weed and crop plants (Tables C); type: in vivo, Alopecurus myosuroides; details: application rate 320 g/ha; Table C2a
Excerpt: as §5

BRSNW [19] = test: D. Pre-emergence effects on crop plants (Tables D); type: in vivo, Brassica napus; details: application rate 80 g/ha, crop plant
Excerpt: (§6) Seeds of mono- and dicotyledonous weed plants and crop plants were sown, in plastic or organic planting pots, in sandy loam and covered with soil. The compounds according to the invention, formulated in the form of wettable powders (WP) or as emulsifiable concentrates (EC), were applied to the surface of the covering soil as aqueous suspension or emulsion, with the addition of 0.5% of an additive, at an application rate of 6001 of water/ha (converted).
(§7) Following treatment, the pots were placed in a greenhouse and kept under optimum growth conditions for the test plants. The visual grading of the damage to the test plants was carried out after ca. 3 weeks in comparison to untreated controls (herbicidal effect in percent (%): 100% effect = plants have died off, 0% effect = as control plants).
(§8) Tables D1 to D5 below show the effects of various compounds of the general formula (I) according to Table 1 on various crop plants and an application rate corresponding to 320 g/ha or below obtained by the experimental procedure mentioned above in Biological Examples, Section C. Table D1a: pre-emergence activity at 320g/ha against ZEAMX in %

DIGSA [20] = test: C. Herbicidal pre-emergence action, weed and crop plants (Tables C); type: in vivo, Digitaria sanguinalis; details: application rate 320 g/ha; Table C5a
Excerpt: as §5

BRSNW [21] = test: F. Post-emergence effects on crop plants (Tables F); type: in vivo, Brassica napus; details: application rate 80 g/ha, crop plant
Excerpt: as §4

VIOTR = test: C. Herbicidal pre-emergence action, weed and crop plants (Tables C); type: in vivo, Viola tricolor; details: application rate 320 g/ha; Table C12a
Excerpt: as §5

GLXMA [22] = test: D. Pre-emergence effects on crop plants (Tables D); type: in vivo, Glycine max; details: crop plant; application rate 80 g/ha; Table D4b
Excerpt: as §6, §7, §8

ZEAMX [23] = test: D. Pre-emergence effects on crop plants (Tables D); type: in vivo, Zea mays; details: crop plant; application rate 80 g/ha; Table D1b
Excerpt: as §6, §7, §8

SETVI [24] = test: B. Herbicidal post-emergence action on harmful plants (Tables B); type: in vivo, Setaria viridis; details: application rate 1280 g/ha; Table B5
Description: as §3

[25] = application rate 1280 g/ha, Table A9a
[26] = application rate 1280 g/ha, Table B7a
[27] = application rate 80 g/ha, Table A7c
[28] = application rate 320 g/ha, Table A7b
[29] = application rate 1280 g/ha, visual grading after ca. 3 weeks vs untreated controls, 100% = plants have died off, 0% = as control plants
[30] = application rate 1280 g/ha, Table A12a

SMILES	pre-emergence activity against ALOMY (ALOMY [1]; [25])	post-emergence activity against POAAN (POAAN [2]; [26])	pre-emergence activity against POAAN (POAAN [5]; [27])	pre-emergence activity against POAAN (POAAN [5]; [28])	pre-emergence activity against POAAN (POAAN [5]; [29])	pre-emergence activity against MATIN (MATIN [6]; application rate 1280 g/ha)	pre-emergence activity against ECHCG (ECHCG [7]; application rate 320 g/ha)	pre-emergence activity against ECHCG (ECHCG [7]; application rate 1280 g/ha)	pre-emergence activity against SETVI (SETVI [8]; application rate 320 g/ha)	pre-emergence activity against SETVI (SETVI [8]; application rate 1280 g/ha)	pre-emergence activity against STEME (STEME [10]; application rate 320 g/ha)	pre-emergence activity against STEME (STEME [10]; application rate 1280 g/ha)	post-emergence activity against LOLRI (LOLRI [11])	pre-emergence activity against DIGSA (DIGSA [12]; [30])	pre-emergence activity against LOLRI (LOLRI [13]; application rate 320 g/ha)	pre-emergence activity against LOLRI (LOLRI [13]; application rate 1280 g/ha)	further results
COCc1nn(C)cc1C(=O)N1CCCC1Cc1ccccc1Br (racemic) [Example I-018]	100%	90%	100%	100%	100%	90%	90%	100%	100%	100%	90%	90%	90%	100%	100%	100%	pre-emergence activity against ALOMY (ALOMY [1]; application rate 320 g/ha, Table A9b): 90%; post-emergence activity against VERPE (VERPE): 90%; post-emergence activity against POAAN (POAAN [2]; application rate 320 g/ha, Table B7b): 90%; post-emergence activity against STEME (STEME [3]): 90%; post-emergence activity against MATIN (MATIN [4]; application rate 320 g/ha, Table B4b): 90%; post-emergence activity against MATIN (MATIN [4]; application rate 1280 g/ha, Table B4a): 90%; pre-emergence activity against MATIN (MATIN [6]; application rate 80 g/ha): 90%; pre-emergence activity against MATIN (MATIN [6]; application rate 320 g/ha): 90%; pre-emergence activity against ECHCG (ECHCG [7]; application rate 80 g/ha): 90%; post-emergence activity against ECHCG (ECHCG [9]): 90%; pre-emergence activity against LOLRI (LOLRI [13]; application rate 80 g/ha): 90%
Cn1cc(C(=O)N2CCCC2Cc2ccccc2F)c(COCC(F)F)n1 (racemic) [Example I-044]	90%		90%	100%	100%	90%	90%	100%		90%		90%		100%	90%	90%	post-emergence activity against GLXMA in % (GLXMA [14]): 0%; pre-emergence activity against MATIN (MATIN [15]): 90%; post-emergence activity against ZEAMX in % (ZEAMX [16]; application rate 80 g/ha): 0%; post-emergence activity against ZEAMX in % (ZEAMX [16]; application rate 320 g/ha): 0%; pre-emergence activity against ECHCG (ECHCG [17]): 90%; post-emergence activity against TRZAS in % (TRZAS): 0%; pre-emergence activity against ALOMY (ALOMY [18]): 90%; pre-emergence activity against BRSNW in % (BRSNW [19]): 0%; pre-emergence activity against DIGSA (DIGSA [20]): 90%; post-emergence activity against BRSNW in % (BRSNW [21]): 0%; pre-emergence activity against VIOTR (VIOTR): 90%; pre-emergence activity against GLXMA (GLXMA [22]): 0%; pre-emergence activity against ZEAMX (ZEAMX [23]): 0%; pre-emergence activity against DIGSA (DIGSA [12]; application rate 320 g/ha, Table A12b): 90%
COCc1c(C(=O)N2CCCC2Cc2c(F)cccc2F)cnn1C (racemic) [Example I-124]		90%	90%	100%	100%	100%	90%	100%	90%	90%	90%	90%	90%	90%	90%	100%	post-emergence activity against SETVI (SETVI [24]): 90%
